Assay results: patent publication US20070203244A1, “INHIBITORS OF MEMBRANE TYPE-1 MATRIX METALLOPROTEINASE FOR THE TREATMENT OF INSULIN-DEPENDENT DIABETES MELLITUS” (priority 2006, published 2007)

How the values were obtained:
MMP-2 = target: T1, MMP-2 (Homo sapiens, UniProt P08253); conditions: cited from earlier work
T1 sequence (P08253 110-660): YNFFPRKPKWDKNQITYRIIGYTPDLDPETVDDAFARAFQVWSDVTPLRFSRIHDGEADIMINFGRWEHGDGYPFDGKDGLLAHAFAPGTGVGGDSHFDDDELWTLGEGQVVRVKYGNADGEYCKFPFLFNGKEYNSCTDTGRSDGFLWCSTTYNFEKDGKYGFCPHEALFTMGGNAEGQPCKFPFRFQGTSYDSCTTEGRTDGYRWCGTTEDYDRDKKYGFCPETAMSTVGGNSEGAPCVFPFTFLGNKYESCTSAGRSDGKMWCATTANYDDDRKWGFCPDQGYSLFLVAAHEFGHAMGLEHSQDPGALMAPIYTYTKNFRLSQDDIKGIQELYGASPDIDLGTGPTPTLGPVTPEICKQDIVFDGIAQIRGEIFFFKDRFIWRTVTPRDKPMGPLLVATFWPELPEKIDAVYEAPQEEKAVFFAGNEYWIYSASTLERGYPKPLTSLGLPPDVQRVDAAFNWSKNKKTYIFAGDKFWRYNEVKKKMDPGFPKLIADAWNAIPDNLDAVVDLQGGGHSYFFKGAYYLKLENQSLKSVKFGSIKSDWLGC

MMP-9 [1] = target: T2, MMP-9 (Homo sapiens, UniProt P14780); conditions: cited from earlier work
[2] = cited from earlier work
MMP-7 [3] = target: T3, MMP-7 (Homo sapiens, UniProt P09237); conditions: read-out: IC50 for MMP-7 inhibition; cited from earlier work
T3 sequence (P09237 95-267): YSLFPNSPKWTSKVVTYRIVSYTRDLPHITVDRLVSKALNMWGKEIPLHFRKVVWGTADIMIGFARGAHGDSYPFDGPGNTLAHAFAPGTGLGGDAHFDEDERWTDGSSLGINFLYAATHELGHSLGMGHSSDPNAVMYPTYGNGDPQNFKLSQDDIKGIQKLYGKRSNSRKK

MT1-MMP [4] = conditions: HT1080 fibrosarcoma cell line; cited from earlier work
CD44 = assay: Cleavage of cellular CD44 by external MT1-MMP-CAT in IS-CD8+ cells (FACS, Western blotting); assay type: cell-based, NOD mouse; conditions: GM6001 50 μM added to cells co-incubated with MT1-MMP-CAT
Procedure: Treatment of Cells with MT1-MMP-CAT—The catalytic domain of MT1-MMP (MT1-MMP-CAT; 3 μg) was co-incubated for 2 h at 37° C. with IS-CD8^+ cells (1×10^7 cells) in 0.2 ml of 50 mM HEPES, 10 Mm CaCl2, 0.5 mM MgCl2, 50 μM ZnCl2, and 0.01% Brij-35 buffer, pH 6.8. Where indicated, GM6001 (50 μM; Chemicon, Temecula, Calif.) was added to the samples. Following treatment, the cells were injected into the irradiated mice or used for DiI labeling, Western blotting, FACS analysis, and other analytical procedures (Savinov, A. Y., et al. (2003); Deryugina, E. I., et al. (2001); Rozanov, D. V., et al. (2001)).
Western Blotting—IS-CD8^+ cells were surface biotinylated for 1 h at 4° C. with 0.1 mg/ml sulfo-NHS-LC-biotin (Pierce, Rockford, Ill.). Following washes to remove biotin, cells were co-incubated for 2 h with MT1-MMP-CAT in serum-free, unsupplemented Click's medium. […]
Monoclonal Antibodies and FACS Analysis—IS-CD8^+ cells were stained with the MT1-MMP (Ab815; Chemicon), CD44 (clone IM7.8.1), CD3 (clone 17A2), and CD49d (clone SG31) monoclonal antibodies (all from BD Biosciences, Rockville, Md.) and the CD29 monoclonal antibody (Chemicon), followed by staining with fluorescein isothiocyanate- or phycoerythrinconjugated secondary antibody (BD Biosciences), and then analyzed on a FACScan flow cytometer (Becton Dickinson, Franklin Lakes, N.J.). […]

MT1-MMP [5] = target: T4, MT1-MMP (Mus musculus, UniProt P53690); assay: MT1-MMP-dependent MMP-2 activation in adherent IS-CD8+ cells, gelatin zymography; assay type: cell-based, NOD mouse; conditions: Example 1: adherent IS-CD8+ cells on gelatin, 4 h
T4 construct: Endogenous MT1-MMP is latent in non-adherent IS-CD8^+ cells; endogenous in cells; host or cells: IS-CD8+ T cells (TGNFC8 clone, NOD mouse), adherent to gelatin
Procedure: MT1-MMP-dependent MMP-2 Activation and Gelatin Zymography—IS-CD8^+ cells (1×10^6) were either allowed to adhere for 4 h in serum-free unsupplemented Click's medium to plastic coated with 2% gelatin or kept in solution. Under these experimental conditions, the vast majority of cells became attached to gelatin. In 4 h, media samples (30 μl each) were withdrawn and analyzed by gelatin zymography (Deryugina, E. I., et al. (2001)) to identify the proteolytic activity and the activation status of MMP-2 naturally synthesized by IS-CD8^+ cells. Where indicated, cells were supplemented with external purified pro-MMP-2 (20 ng). Pro-MMP-2 was isolated from a conditioned medium of p2AHT2A72 cells derived from an HT1080 fibrosarcoma cell line sequentially transfected with the E1A and MMP-2 cDNAs (Strongin, A. Y., et al. (1995)).
MT1-MMP-dependent MMP-2 activation and gelatin zymography—IS-CD8^+ cells (1×10^6) were either allowed to adhere for 4 h in serum-free unsupplemented Click's medium to the plastic coated with 2% gelatin or kept in solution. In 18 h, media samples (30 μl each) were withdrawn and analyzed by gelatin zymography (Deryugina, E. I., et al. (2001)) to identify the proteolytic activity and the activation status of MMP-2 naturally synthesized by IS-CD8^+ cells. […] Pro-MMP-2 was isolated from a conditioned medium of p2AHT2A72 cells derived from an HT1080 fibrosarcoma cell line sequentially transfected with the E1A and MMP-2 cDNAs (Strongin, A. Y., et al. (1995)).

[6] = test system: CD44 shedding in IS-CD8+ cells; assay: CD44 shedding in adherent IS-CD8+ cells, Western blotting; assay type: cell-based, NOD mouse; conditions: Example 1: adherent IS-CD8+ cells on gelatin
Procedure: Western Blotting—IS-CD8^+ cells were surface biotinylated for 1 h at 4° C. with 0.1 mg/ml sulfo-NHS-LC-biotin (Pierce, Rockford, Ill.). Following washes to remove biotin, cells were co-incubated for 2 h with MT1-MMP-CAT in serum-free, unsupplemented Click's medium. The cells were then lysed with 50 mM N-octyl-β-D-glucopyranoside in phosphate-buffered saline supplemented with 1 mM CaCl2, 1 mM MgCl2, and protease inhibitor mixture containing phenylmethylsulfonyl fluoride (1 mM) and aprotinin, pepstatin, and leupeptin (1 μg/ml each). Biotin-labeled CD44 was captured from the cell lysate and from the medium aliquots on streptavidin-agarose beads. The captured samples were examined by Western blotting with the CD44 (clone IM7.8.1) antibody to determine the released, soluble, CD44 ectodomain in the medium samples and the residual, membrane-anchored, cellular CD44 in the cell lysates.
Western blotting—IS-CD8^+ cells were surface biotinylated for 1 hr at 4° C. with 0.1 mg/ml of sulfo-NES-LC-biotin (Pierce). Following washes to remove biotin, the labeled cells were allowed to adhere in serum-free medium to plastic coated with 2% type I collagen/gelatin for 4 h or were kept in suspension. Under these experimental conditions, the vast majority of the cells became attached to gelatin. […] The cells were then lysed with 50 mM N-octyl-β-D-glucopyranoside in PBS supplemented with 1 mM CaCl2, 1 mM MgCl2, and protease inhibitor cocktail containing phenylmethylsulfonyl fluoride (1 mM) and aprotinin, pepstatin, and leupeptin (1 μg/ml each). Biotin-labeled CD44 was captured from the cell lysate and from the medium aliquots on streptavidine-Agarose beads. The captured samples were examined by Western blotting with the CD44 (clone IM7.8.1) antibody to determine the released, soluble, CD44 ectodomain in the medium samples and the residual, membrane-anchored, cellular CD44 in the cell lysates.

MMP-7 [7] = target: T3, MMP-7; conditions: read-out: EC50 against MMP-7; cited from earlier work
MMP-9 [8] = target: T2, MMP-9; conditions: read-out: EC50 against MMP-9; cited from earlier work
MT1-MMP [9] = conditions: read-out: EC50 against MT1-MMP; cited from earlier work
[10] = test system: Zucker diabetic fatty rats; conditions: cited from earlier work
[11] = target: cell surface-associated CD44 of IS-CD8+ T cells (mouse) (UniProt P15379); assay: cell-based or functional assay
[12] = target: cell surface-associated CD44 of IS-CD8+ T cells (UniProt P15379)
Sequence of cell surface-associated CD44 of IS-CD8+ T cells (P15379 23-778): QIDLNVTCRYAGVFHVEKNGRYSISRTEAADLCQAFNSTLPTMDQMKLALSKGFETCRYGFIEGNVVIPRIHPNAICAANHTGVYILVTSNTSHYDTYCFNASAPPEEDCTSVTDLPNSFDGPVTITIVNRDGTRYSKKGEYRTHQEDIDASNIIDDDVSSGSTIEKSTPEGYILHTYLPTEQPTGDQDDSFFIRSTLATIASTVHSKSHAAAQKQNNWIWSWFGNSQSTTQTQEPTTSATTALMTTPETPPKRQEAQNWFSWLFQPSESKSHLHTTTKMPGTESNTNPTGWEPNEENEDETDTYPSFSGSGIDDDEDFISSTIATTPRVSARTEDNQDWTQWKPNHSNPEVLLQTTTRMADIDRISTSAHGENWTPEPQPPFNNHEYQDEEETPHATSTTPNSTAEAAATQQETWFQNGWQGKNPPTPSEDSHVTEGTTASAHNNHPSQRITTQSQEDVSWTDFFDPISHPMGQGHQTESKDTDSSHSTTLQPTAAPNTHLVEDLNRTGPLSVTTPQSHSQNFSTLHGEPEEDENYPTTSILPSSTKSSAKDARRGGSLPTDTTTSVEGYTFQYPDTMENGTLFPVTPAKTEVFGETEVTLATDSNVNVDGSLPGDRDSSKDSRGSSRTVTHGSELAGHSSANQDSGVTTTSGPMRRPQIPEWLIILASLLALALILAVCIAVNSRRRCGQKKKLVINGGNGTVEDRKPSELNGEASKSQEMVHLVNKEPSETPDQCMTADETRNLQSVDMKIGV

T2 sequence (P14780 94-707, species assumed): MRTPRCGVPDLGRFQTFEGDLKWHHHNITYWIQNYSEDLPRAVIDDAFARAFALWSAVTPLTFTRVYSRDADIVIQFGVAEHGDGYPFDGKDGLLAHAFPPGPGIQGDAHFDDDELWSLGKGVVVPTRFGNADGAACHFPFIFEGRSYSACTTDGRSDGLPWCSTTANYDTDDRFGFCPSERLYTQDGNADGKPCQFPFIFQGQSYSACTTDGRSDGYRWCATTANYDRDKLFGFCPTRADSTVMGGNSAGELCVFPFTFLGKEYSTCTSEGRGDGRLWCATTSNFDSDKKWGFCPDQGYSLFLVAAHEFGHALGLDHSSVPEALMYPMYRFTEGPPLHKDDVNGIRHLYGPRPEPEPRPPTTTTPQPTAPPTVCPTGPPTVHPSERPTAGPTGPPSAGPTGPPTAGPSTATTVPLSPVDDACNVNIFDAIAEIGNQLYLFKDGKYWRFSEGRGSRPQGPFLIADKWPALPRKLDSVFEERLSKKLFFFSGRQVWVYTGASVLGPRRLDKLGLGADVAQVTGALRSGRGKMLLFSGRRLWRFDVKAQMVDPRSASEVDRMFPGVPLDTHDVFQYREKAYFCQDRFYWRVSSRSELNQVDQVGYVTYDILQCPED
Sequence of cell surface-associated CD44 of IS-CD8+ T cells (mouse) (P15379 23-778): as the sequence (P15379 23-778) above

Q: For `O=C(C[C@H](CSc1ccccc1)C(=O)O)c1ccc(-c2ccc(Cl)cc2)cc1` [BAY 12-9566], which “IC50 for MMP-2 inhibition” value (MMP-2) is on record?
A: below 0.13 μg/mL

Q: And the “IC50 for MMP-9 inhibition” value (MMP-9 [1])?
A: below 0.13 μg/mL

Q: What about the “time to peak plasma concentrations after dosing” value ([2]; after oral administration) of the same compound?
A: 0.5 to 2 h

Q: What about the linearity of pharmacokinetics ([2]; normal volunteers, doses of up to 100 mg/day) of the same compound?
A: linear

Q: What about the “effect of repeated administration on clearance” value ([2]; repeated administration) of the same compound?
A: increased clearance

Q: For `CNC(=O)[C@H](Cc1ccccc1)NC(=O)[C@H](CC(C)C)[C@H](CSc1cccs1)C(=O)NO` [Batimastat], which IC50 (MMP-7 [3]) is on record?
A: < 0.0209 µM

Q: And the IC50 (MMP-9 [1]; read-out: IC50 for MMP-9 inhibition)?
A: < 0.0209 µM

Q: With `O=P(O)(O)C(Cl)(Cl)P(=O)(O)O` [Clodronate] as the compound, how does the “expression of MT1-MMP protein and messenger RNA” value (MT1-MMP [4]) read?
A: inhibited

Q: For `CNC(=O)[C@H](Cc1c[nH]c2ccccc12)NC(=O)[C@@H](CC(=O)NO)CC(C)C` [GM6001], which “effect on MT1-MMP-CAT cleavage of cellular CD44” value (CD44) is on record?
A: reversed the effect of MT1-MMP-CAT

Q: What about the “activation of MMP-2 in adherent cells” value (MT1-MMP [5]) of the same compound?
A: blocked

Q: What about the “shedding of CD44 in adherent cells” value [6] of the same compound?
A: blocked

Q: Which results are given for `CC(C)[C@H](NS(=O)(=O)c1ccc(-c2ccc(Br)cc2)cc1)C(=O)O` [PD166793, (S)-2-(4′-bromo-biphenyl-4-sulfonylamino)-3-methyl-butyric acid]?
A: EC50 (MMP-7 [7]): 7.2 µM; EC50 (MMP-9 [8]): 7.9 µM; EC50 (MT1-MMP [9]): 0.24 µM; β cell mass [10]: preserved β cell mass

Q: For “MMP-2 (as incubated with α1-antitrypsin)”, which “cleavage of α1-antitrypsin in vitro, reducing SDS-gel electrophoresis” value (α1-antitrypsin) is on record?
A: the MMP-2 proteolysis of α1-antitrypsin (a sensitive and readily available protein substrate of MMPs) and converting this 61 kDa serpin into a 55 kDa degradation fragment

Q: For “catalytic domain of MT1-MMP (MT1-MMP-CAT) (enzyme)”, which homing of DiI-labeled IS-CD8+ cells into the pancreatic islets of NOD mice, 24 h [11] is on record?
A: 4.5 fold

Q: With “cell surface-associated MT1-MMP of IS-CD8+ T cells” as the compound, how does the “release of CD44 proteolytic fragments into medium, Western blotting” value [12] read?
A: release of the CD44 proteolytic fragments into medium was detected only in adherent IS-CD8^+ cells
